Experimental findings from ChEMBL document CHEMBL4387705, “Synthesis of new arylsulfonylspiroimidazolidine-2',4'-diones and study of their effect on stimulation of insulin release from MIN6 cell line, inhibition of human aldose reductase, sorbitol accumulations in various tissues and oxidative stress” (Eur J Med Chem, 2019) are described below.

The structures appear in SMILES notation.

Series [1] concerns the target Aldo-keto reductase family 1 member B1 (Homo sapiens, UniProt P15121). Put plainly: Inhibition of human recombinant ALR2 expressed in Escherichia coli using DL-glyceraldehyde as substrate and NADPH preincubated for 5 mins followed by substrate addition and measured after 30 mins at 2 mins interval by spectrophotometry relative to control.
The nature of series [2]: Antioxidant activity assessed as DPPH radical scavenging activity at 100 uM incubated for 30 mins under dark condition by spectrophotometry. It counts as functional. For orientation: Loss of DPPH colour is used to gauge radical scavenging.
The nature of series [3]: Cytotoxicity against HEK293 cells assessed as reduction in cell viability at 200 uM incubated for 48 hrs by MTT assay relative to control. It counts as cell-based. Conditions: human, read-out: INH.
Series [4] is described as follows: Antioxidant activity assessed as DPPH radical scavenging activity at 50 uM incubated for 30 mins under dark condition by spectrophotometry. It counts as functional.
Series [5] can be described thus: Antioxidant activity assessed as DPPH radical scavenging activity at 10 uM incubated for 30 mins under dark condition by spectrophotometry. It counts as functional.
A short description of series [6]: Cytotoxicity against HEK293 cells assessed as reduction in cell viability at 25 uM incubated for 48 hrs by MTT assay relative to control. It counts as cell-based. As to conditions: human, read-out: INH. Background: Formazan colour is commonly taken as a measure of viable cells.
Series [7] concerns MIN6. Put plainly: Effect on cell morphology in mouse MIN6 cells assessed as cell viability up to 400 uM incubated for 24 hrs. In kind it is cell-based. As to conditions: min6, 24 h.
The nature of series [8]: Cytotoxicity against HEK293 cells assessed as reduction in cell viability at 50 uM incubated for 48 hrs by MTT assay relative to control. In kind it is cell-based. Conditions: human, read-out: INH.
Series [9] has as its system MIN6. Nature of the series: Cytotoxicity against mouse MIN6 cells assessed as reduction in cell viability up to 200 uM incubated for 24 hrs by MTT assay. It counts as cell-based. Conditions: min6, 24 h.
Series [10] in a line: Cytotoxicity against mouse MIN6 cells assessed as cell viability at 400 uM incubated for 24 hrs by MTT assay. It counts as cell-based. Conditions: read-out: Activity.
Series [11] in a line: Selectivity ratio of IC50 for rat kidney ALR1 IC50 to IC50 for human recombinant ALR2.
Series [12] deals with MIN6. Put plainly: Antidiabetic activity in mouse MIN6 cells after 35 passages assessed as increase in insulin secretion at 100 uM in presence of 25 mM glucose by ELISA relative to control. It counts as functional. For orientation: An ELISA detects its analyte on a solid surface through an enzyme-linked reagent.
For series [13], the target named is Aldo-keto reductase family 1 member A1 (Rattus norvegicus, UniProt P51635). Put plainly: Inhibition of rat kidney ALR1 using DL-glyceraldehyde as substrate and NADPH preincubated for 5 mins followed by substrate addition and measured for 30 mins at 2 mins interval by spectrophotometry relative to control.
Series [14] has as its target T1, Aldo-keto reductase family 1 member B1 (Rattus norvegicus, UniProt P07943). Nature of the series: (§1) Inhibition of ALR2 in rat lens assessed as reduction in sorbitol accumulation incubated for 3 hrs in presence of 28 mM glucose by gas chromatographic analysis relative to control.
For series [15], the target named is Aldo-keto reductase family 1 member B1 (Rattus norvegicus) (UniProt P07943). Described as §1.
Series [16] can be described thus: Cytotoxicity against HEK293 cells assessed as reduction in cell viability at 100 uM incubated for 48 hrs by MTT assay relative to control. In kind it is cell-based. Conditions: human, read-out: INH.
Series [17] deals with T1, Aldo-keto reductase family 1 member B1. Nature of the series: (§2) Inhibition of ALR2 in rat sciatic nerve assessed as reduction in sorbitol accumulation incubated for 3 hrs in presence of 28 mM glucose by gas chromatographic analysis.
Series [18] has as its target Aldo-keto reductase family 1 member B1 (Rattus norvegicus) (UniProt P07943). Described as §2.
Series [19] addresses T1, Aldo-keto reductase family 1 member B1. Put plainly: (§3) Inhibition of ALR2 in rat erythrocytes assessed as reduction in sorbitol accumulation incubated for 3 hrs in presence of 28 mM glucose by gas chromatographic analysis relative to control. In kind it is cell-based.
For series [20], the target named is Aldo-keto reductase family 1 member B1 (Rattus norvegicus) (UniProt P07943). Described as §3. It counts as cell-based.
Series [21] deals with MIN6. Nature of the series: Antidiabetic activity in mouse MIN6 cells after 83 passages assessed as increase in insulin secretion at 100 uM in presence of 25 mM glucose by ELISA relative to control. It counts as functional.

Chain of Aldo-keto reductase family 1 member A1 (P51635 whole entry, looked up): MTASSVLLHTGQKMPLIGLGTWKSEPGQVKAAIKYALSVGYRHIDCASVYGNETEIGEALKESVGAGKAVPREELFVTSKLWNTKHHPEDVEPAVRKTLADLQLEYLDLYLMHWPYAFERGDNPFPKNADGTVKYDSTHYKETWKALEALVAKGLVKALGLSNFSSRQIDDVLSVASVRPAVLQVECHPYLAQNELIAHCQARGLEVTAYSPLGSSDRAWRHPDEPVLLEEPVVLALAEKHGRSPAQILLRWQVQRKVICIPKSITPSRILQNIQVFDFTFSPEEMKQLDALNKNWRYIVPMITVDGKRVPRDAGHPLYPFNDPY

For `COc1ccc(S(=O)(=O)N2C(=O)NC3(CCCc4ccccc43)C2=O)cc1` (stereo unspecified), the IC50 stood at 11.7 µM in series [1]; 25.6 µM in series [13]; 15.8 µM in [14]; 19.4 µM in [17]; 20.4 µM in series [19]. The inhibition in series [2] is 66.9%; in series [4], 45.3%; in series [5], 31.6%; in series [15] it was “Dose-dependent effect”; in series [18] it was “Dose-dependent effect”; in [20], “Dose-dependent effect”. Besides, the cytotoxicity at 48 h, 200 µM in series [3] was 26.6%. Further, the cytotoxicity at 48 h, 25 µM in series [6] amounted to 15.4%. The Activity entry was “Non-Toxic” with MIN6 [7], “Non-Toxic” in the series on MIN6 [9] and 142% in the series with MIN6 [12]. The cytotoxicity at 48 h, 50 µM in series [8] came to 13.6%. The viability at 24 h, 400 µM in series [10] came to 81%. Moreover, in [11], the Ratio IC50 amounted to 2.2. The cytotoxicity at 48 h, 100 µM in series [16] was found to be 18.5%.
For `O=C1NC(=O)C2(CCCc3ccccc32)N1S(=O)(=O)c1ccc(Br)cc1` (stereo unspecified), the IC50 was found to be 5.72 µM in series [1]; 41.4 µM in [13]; 2.5 µM in [14]; 2.72 µM in series [17]; 2.79 µM in series [19]. Further, the inhibition was 1.59% in series [2], “Dose-dependent effect” in series [15], “Dose-dependent effect” in [18] and “Dose-dependent effect” in series [20]. Moreover, the cytotoxicity at 48 h, 200 µM in series [3] came out at 25.8%. The cytotoxicity at 48 h, 25 µM in series [6] amounted to 12.8%. The Activity entry is given as “Non-Toxic” with MIN6 [7], “Non-Toxic” in the series with MIN6 [9], 210% with MIN6 [12] and 160% with MIN6 [21]. The cytotoxicity at 48 h, 50 µM in series [8] was 18.8%. Moreover, the viability at 24 h, 400 µM in [10] was 81%. In [11], the Ratio IC50 came out at 7.23. Also, the cytotoxicity at 48 h, 100 µM in series [16] was found to be 19.4%.
For `Cc1ccc(S(=O)(=O)N2C(=O)NC3(CCCc4ccccc43)C2=O)cc1` (stereo unspecified), the IC50 in series [1] turned out to be 1.8 µM; in series [14], 1.56 µM; in series [17] it was 1.72 µM; in series [19] it was 1.7 µM. In addition, the inhibition is 42.4% in [2]; 37.3% in [4]; 23.2% in [5]; “Dose-dependent effect” in series [15]; “Dose-dependent effect” in [18]; “Dose-dependent effect” in [20]. Besides, in series [3], the cytotoxicity at 48 h, 200 µM was found to be 21.5%. In addition, the cytotoxicity at 48 h, 25 µM in series [6] was found to be 18.2%. Also, the Activity result was “Non-Toxic” with MIN6 [7], “Non-Toxic” in the series with MIN6 [9], 275% in the series with MIN6 [12] and 177% with MIN6 [21]. Moreover, the cytotoxicity at 48 h, 50 µM in [8] was found to be 19.1%. Further, in series [10], the viability at 24 h, 400 µM was found to be 81%. Further, the cytotoxicity at 48 h, 100 µM in [16] turned out to be 20.2%.
Take `O=C1NC2(CCCc3ccccc32)C(=O)N1S(=O)(=O)c1ccc(Br)cc1` (stereo unspecified): the IC50 in [1] worked out at 10.8 µM; in series [13], 44.1 µM; in [14] it was 10.9 µM; in [17], 10.4 µM; in series [19] it was 11.1 µM. Further, the inhibition is 1.55% in [2], “Dose-dependent effect” in [15], “Dose-dependent effect” in [18] and “Dose-dependent effect” in [20]. Further, the cytotoxicity at 48 h, 200 µM in [3] amounted to 39.3%. In addition, the cytotoxicity at 48 h, 25 µM in series [6] was found to be 16.9%. Also, the Activity result in the series on MIN6 [7] is given as “Non-Toxic”; in the series with MIN6 [9], “Non-Toxic”; with MIN6 [12] it was 165%. Besides, the cytotoxicity at 48 h, 50 µM in series [8] is 18.9%. Further, in [10], the viability at 24 h, 400 µM was found to be 81%. Further, the Ratio IC50 in series [11] was 4.07. Besides, the cytotoxicity at 48 h, 100 µM in [16] is 21.1%.

The term IC50 denotes the concentration that inhibits the measured activity by half. Usually inhibition stands for how much of the control response was suppressed.
